According to US11427574B2, “Compounds for treating Rac-GTPase mediated disorder” (Children's Medical Center Corporation, priority 2015, dated 2022):

Columns and labels:
[1] = tested on: normal bone marrow hematopoietic and progenitor cells; assay: Colony forming unit assay (CFU assay) for toxicity; format: cell-based; conditions: semi-solid media, different doses
Protocol: Compound 1 was tested for toxicity in a colony forming unit assay (CFU assay), which was performed by plating normal bone marrow hematopoietic and progenitor cells in semi-solid media supplemented with different doses of Compound 1, NSC23766, and DMSO.
Compound 2 was also tested for toxicity in a colony forming unit assay (CFU assay), which was performed by plating normal bone marrow hematopoietic and progenitor cells in semi-solid media supplemented with different doses of Compound 2, NSC23766, and DMSO.

[2] = tested on: SEM cell line; assay: Annexin V flow assay for apoptosis and cell death, SEM; format: cell-based; conditions: Annexin V staining
Description: (§1) FIGS. 3a-3c show three graphs illustrating the dose dependent inhibition of proliferation of Compound 1 in SEM, P12, and Loucy cells as measured by MTS assay. […] Compound 1 was further analyzed for its effect on cell apoptosis and cell death using a flow based assay using Annexin V staining.
Compound 2 was further analyzed for its effect on cell apoptosis and cell death using a flow based assay using Annexin V staining.

[3] = tested on: SEM cells; assay: Proliferation assay in SEM leukemia cells; format: cell-based; conditions: read-out: IC50, inhibition of proliferation
Protocol: Dose Dependent Inhibition of Proliferation The 100 compounds selected from the initial in silico screen were assayed for inhibition of proliferation in two leukemia cell lines, SEM and P12 by Cell Titer Glo. The cells for the proliferation assay were spun down and re-suspended. The cell suspension was then divided and the compound to be tested added in desired concentrations and subsequently plated. Following an incubation period, the Cell Titer Glo reagent (Promega CellTiter 96® Aqueous Non-Radioactive Cell Proliferation Assay) was added and allowed to incubate. The absorbance is subsequently measured at 490 nm using a plate reader. Each compound was analyzed for its effects on cell proliferation.
The lead compound, i.e. Compound 1, was analyzed for its effect on cell proliferation at various doses on three different leukemia cell lines: SEM, P12, and Loucy. In order to quantitate the percentage inhibition of cell proliferation, Cell Titer Glo analysis was completed as described in Example 2 above.
FIGS. 3a-3c show three graphs illustrating the dose dependent inhibition of proliferation of Compound 1 in SEM, P12, and Loucy cells as measured by MTS assay. […] Compound 1 was further analyzed for its effect on cell apoptosis and cell death using a flow based assay using Annexin V staining. […]

[4] = tested on: P12 cell line; assay: Annexin V flow assay for apoptosis and cell death, P12; format: cell-based; conditions: Annexin V staining
Description: as §1

[5] = target: T1, RHOA (Homo sapiens, UniProt P61586); assay: RHOA activation pull down assay (Western blot); format: cell-based; conditions: Western Blot (FIG. 11a)
T1 construct: endogenous in cells
Description: (§2) Compound 1 was further tested to evaluate its effect on RHOA and RAS activation.

[6] = tested on: Rac; assay: Rac activation pull down assay (PAK beads, Western blot); format: cell-based; conditions: Western Blot (FIG. 2a)
Protocol: To determine which of these compounds should be further pursued, a biochemical pull down assay was performed to confirm specific inhibition of Rac activation indicated by disruption of the interaction between Rac and […]. The assay initially required treatment of cells followed by pull down and analysis with Western blot. The cells were first starved in serum free media for 2 hours. They were then re-suspended in serum-containing medium and inhibitors added at desired concentration. Following incubation for the desired length of time, the cells were pelleted and lysed with Magnesium Lysis Buffer (Millipore Mg^2+ lysis/wash buffer). The Rac protein and any bound proteins were then collected with Pak Beads (Millipore Rac/cdc42 Assay Reagent (PAK-1 PBD, agarose). Bound protein was subsequently removed with lysis buffer and subject to Western Blot analysis.
Compound 1 was identified as a lead compound from the above analyses. […] The Western Blot and pull down analyses are also shown for the compound DMSO, and the compound NSC23776, which is a known inhibitor of Rac1 binding and of Rac activation by Rac-specific RhoGEFs.

[7] = tested on: RAS; assay: RAS activation pull down assay (Western blot); format: cell-based; conditions: Western Blot (FIG. 11b)
Description: as §2

[8] = tested on: 12 GPCRs; assay: GPCR profiling, whole panel; format: binding; conditions: summary of Table 2, antagonist and agonist
Protocol: Compound 1 was tested for its efficacy in inhibiting activities of 40 kinases and binding with 12 GPCRs both as an antagonist and an agonist.

T1 sequence (P61586 whole entry): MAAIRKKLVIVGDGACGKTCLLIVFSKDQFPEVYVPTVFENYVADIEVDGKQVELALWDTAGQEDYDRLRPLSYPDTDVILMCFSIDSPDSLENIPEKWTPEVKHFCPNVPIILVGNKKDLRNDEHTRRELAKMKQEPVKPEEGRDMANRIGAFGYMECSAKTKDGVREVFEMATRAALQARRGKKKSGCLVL

IC50 [3]: 43.8 µM
RHOA activation [5]: no significant effect
binding to the 12 GPCRs tested [8]: no significant binding
Compound: CCc1ccc(CN(C)C(=O)CCc2nnc(CCc3c[nH]c4ccccc34)o2)nc1 (racemic) [Compound 1]
toxicity toward normal bone marrow cells [1]: did not exhibit toxicity
cell apoptosis and cell death [2]: caused cells apoptosis and cell death
cell apoptosis and cell death [4]: caused cells apoptosis and cell death
total Rac levels [6]: no significant effect
Rac activation ([6]; pull down): dose dependent reduction
RAS activation [7]: no significant effect
